# “And” between values parts separate entries of the source, which are not always exact repeats. Equal values may be shown once.
# Columns and labels:
# [1] = PK/PD experiment of ICR mice: plasma concentration; assay type: in vivo, CD-1 (ICR) mice; settings: CD-1 (ICR), mouse, oral dose 3 mg/kg
# Experimental: (§1) Experimental animals: CD-1 (ICR) mice aged for 4 weeks and weighed for about 18-22 g.
# (§2) Grouping and administration scheme: the mice were fed adaptively, randomly grouped according to the weight on the day before experiment, and fasted overnight. […] After the experimental grouping, the group provided separately for detecting the initial basic value of DPPIV was carried out blood sampling, and other animals were intragastrically administrated with the drug at an administration volume of 10 mL/kg, the blood was sampled after the administration, and all other animals were stimulated with glucose administration; the blood was sampled at 20 min, 40 min, 60 min and 120 min after the glucose administration, respectively, and the plasma concentration and the DPPIV activity were detected by using plasma.
# Research on pharmacodynamics-plasma concentration correlation: blood samples were collected at time points of 1 h, 1.33 h, 1.67 h, 2 h and 3 h after administration, and the plasma concentration was measured. The drug exposure value (AUCeff0-3h) of the DPPIV-P1 increased with the increase of dose, which was 16.09 ng·h/mL, 52.65 ng·h/mL, 162.3 ng·h/mL and 542.28 ng·h/mL, respectively.
# [2] = Weight of ICR mice of each group; assay type: in vivo, CD-1 (ICR) mice; settings: individual animals, 3 mg/kg group, 3 mg/kg
# Experimental: as §1, §2
# DIO mice [3] = assay: Long-term administration on DIO mice: fasting blood glucose; assay type: in vivo; settings: for Fasting blood glucose: 30 mg/kg daily intragastric
# Experimental: (§3) A solution with a certain concentration was prepared from the crystal form B of the phosphate, and the administration volume was 10 mL/kg.
# (§4) Experimental animals: C57BL16 mice aged for 5 weeks and weighed for about 13-16 g.
# (§5) Grouping and administration scheme: the mice were fed adaptively and divided into a normal control group and a model group which were fed with high-fat feed (Research diets, D 12492). When the fasting blood glucose of the mice was greater than or equal to 7 mM, it was considered that the mice had become DIO mice. The DIO mice could be selected for the hypoglycemic effect test. The DIO mice were stratified and randomly grouped according to the blood glucose and the weight. […] The weight and the fasting blood glucose were measured weekly; the food amount, the remaining food amount and the food intake were recorded; the mice were fasted overnight at the end of administration, the blood was sampled, and the free fatty acid (NEFA), total cholesterol (TCHO), triglyceride (TG), insulin and DPPIV activity were measured by using serum.
# DIO mice [4] = assay: Long-term administration on DIO mice: serum metabolic parameters (NEFA, TCHO, TG, insulin); assay type: in vivo, C57BL16 mice; settings: 30 mg/kg, end of long-term administration
# Source text: Experimental animals: […] Table 18 was a total data table of the metabolic parameters.
# [5] = Long-term administration on DIO mice: weight, food intake, tolerance
# Experimental: as §3, §4, §5
# [6] = XRPD of phosphate crystal form A after heating; assay type: physicochemical; settings: heated for 48 h at 50° C.
# Source text: After detection, the obtained solid was the crystal form A of phosphate, its XRPD data was shown in Table 9 below, its XRPD pattern was shown in FIG. 4, and its TGA chart and DSC chart were shown in FIG. 5. […] (peak temperatures) before decomposition.
# [7] = Rough solubility of the amorphous phosphate in solvents; assay type: physicochemical; settings: thermodynamic from solid
# Experimental: The rough solubility of the amorphous phosphate prepared in Example 1 was measured. During the test, about 2 mg of the amorphous phosphate prepared in Example 1 was weighed and put into a 3 mL glass bottle, the solvents listed in the following Table 8 were added separately at an amount of 20 microliters/each time, and it was observed whether the sample was completely dissolved. If the sample was still not dissolved completely after 2.0 mL of the solvents was added, the test ended.
smiles,measurement,setting,value
"N[C@@H](CC(=O)N1CCn2c(nnc2C(F)(F)F)C1)Cc1cc(F)c(F)cc1F [Sitagliptin phosphate, reference compound]",concentration at 1 h,[1]; 1 hour,184 ± 10.2 ng/mL
same,concentration at 1.33 h,[1]; 1.33 hours,159 ± 46.6 ng/mL
same,concentration at 1.67 h,[1]; 1.67 hours,152 ± 15.1 ng/mL
same,concentration at 2 h,[1]; 2 hours,142 ± 19.6 ng/mL
same,concentration at 3 h,[1]; 3 hours,97.9 ± 35.5 ng/mL
same,AUC,[1]; read-out: Drug exposure (AUCeff0-3 h),370 ng·h/mL
same,weight,[2],24.0 (3×) and 26.0 (2×) and 25.1 (2×) and 25.0 and 24.6 (2×) and 24.4 and 24.3 and 22.9 and 22.2 and 26.5
same,Fasting blood glucose,DIO mice [3]; D 1,8.3 ± 1.1 mmol/L
same,Fasting blood glucose,DIO mice [3]; D 3,6.8 ± 1.1 mmol/L
same,Fasting blood glucose,DIO mice [3]; D 7,8.0 ± 1.2 mmol/L
same,Fasting blood glucose,DIO mice [3]; D 14,8.5 ± 1.3 mmol/L
same,Fasting blood glucose,DIO mice [3]; D 21,8.9 ± 0.9 mmol/L
same,Fasting blood glucose,DIO mice [3]; D 28,8.6 ± 0.9 mmol/L
same,fasting blood glucose data after the drug was administrated for 28 days,"DIO mice [3]; individual animals, 30 mg/kg",8.9 and 8.3 and 8.4 and 7.8 and 9.1 and 8.2 and 9.8 and 7.9 (2×) and 8 and 10.8
same,decrease of insulin compared with the model control group,DIO mice [4],58.3%
same,decrease of total cholesterol (TCHO) compared with the model control group,DIO mice [4],25.4%
same,Serum NEFA,DIO mice [4]; fasted overnight,1.11 ± 0.13 mmol/L
same,Serum TCHO,DIO mice [4]; fasted overnight,3.99 ± 0.798 mmol/L
same,Serum TG,DIO mice [4]; fasted overnight,0.94 ± 0.15 mmol/L
same,Serum insulin,DIO mice [4]; fasted overnight,2.2 ± 1.38 ng/mL
same,Food intake,[5]; 30 mg/kg,2.2 ± 5.0 g/day
same,weight,"[5]; 30 mg/kg daily, D1",37.2 ± 4.4 g
same,weight,"[5]; 30 mg/kg daily, D7",35.3 ± 3.7 g
same,weight,"[5]; 30 mg/kg daily, D14",34.4 ± 4.9 g
same,weight,"[5]; 30 mg/kg daily, D21",37.2 ± 5.3 g
same,weight,"[5]; 30 mg/kg daily, D28",39.5 ± 5.0 g
same,weight,"[5]; 30 mg/kg, total data table of metabolic parameters (end of experiment)",39.5 ± 5.0 g
same,weight after the drug was administrated for 28 days,"[5]; individual animals, 30 mg/kg",39.9 (2×) and 31.0 and 34.8 and 41.6 and 32.2 and 40.5 and 40.8 and 45.6 and 47.1 and 41.0
"C[C@@H]1c2cnc(C(F)(F)F)n2CCN1C(=O)C[C@H](N)Cc1cc(F)c(F)cc1F [phosphate crystal form A, (8R)-7-[(3R)-3-amino-1-oxo-4-(2,4,5-trifluorophenyl)butyl]-5,6,7,8-tetrahydro-8-methyl-3-(trifluoromethyl)imidazo[1,5-a]pyrazine]",crystal form after heating (XRPD),[6],transformed into a phosphate crystal form B
"C[C@@H]1c2cnc(C(F)(F)F)n2CCN1C(=O)C[C@H](N)Cc1cc(F)c(F)cc1F [Example 1, (8R)-7-[(3R)-3-amino-1-oxo-4-(2,4,5-trifluorophenyl)butyl]-5,6,7,8-tetrahydro-8-methyl-3-(trifluoromethyl)imidazo[1,5-a]pyrazine]",solubility,"[7]; 1,4-Dioxane, organic solvent or mixture",2.7 to 2.9 mg/mL
same,solubility,"[7]; 2-MeTHF, organic solvent or mixture",38.3 to 57.5 mg/mL
same,solubility,"[7]; ACN, organic solvent or mixture",57.5 to 115 mg/mL
same,solubility,"[7]; Acetic acid, organic solvent or mixture",< 54 mg/mL
same,solubility,"[7]; Acetone, organic solvent or mixture",47.5 to 95 mg/mL
same,solubility,"[7]; CHCl3, organic solvent or mixture",< 1.3 mg/mL
same,solubility,"[7]; DCM, organic solvent or mixture",< 1.1 mg/mL
same,solubility,"[7]; DMF, organic solvent or mixture",< 42 mg/mL
same,solubility,"[7]; DMSO, organic solvent or mixture",46 to 115 mg/mL
same,solubility,"[7]; EtOAc, organic solvent or mixture",< 1.1 mg/mL
same,solubility,"[7]; EtOH, organic solvent or mixture",57.5 to 115 mg/mL
same,solubility,"[7]; Heptane, organic solvent or mixture",< 1.3 mg/mL
same,solubility,"[7]; Hexane, organic solvent or mixture",< 1.2 mg/mL
same,solubility,"[7]; IPA, organic solvent or mixture",38.3 to 57.5 mg/mL
same,solubility,"[7]; IPAc, organic solvent or mixture",< 1.1 mg/mL
same,solubility,"[7]; MEK, organic solvent or mixture",72.5 to 145 mg/mL
same,solubility,"[7]; MIBK, organic solvent or mixture",< 1 mg/mL
same,solubility,"[7]; MTBE, organic solvent or mixture",< 0.9 mg/mL
same,solubility,"[7]; MeOH, organic solvent or mixture",67.5 to 135 mg/mL
same,solubility,"[7]; NMP, organic solvent or mixture",20 to 40 mg/mL
same,solubility,"[7]; THF, organic solvent or mixture",46 to 115 mg/mL
same,solubility,"[7]; Toluene, organic solvent or mixture",< 1 mg/mL
same,solubility,"[7]; cyclohexanol, organic solvent or mixture",< 1 mg/mL
same,solubility,"[7]; isoamyl alcohol, organic solvent or mixture",10 to 13.3 mg/mL
same,solubility,"[7]; isobutyl alcohol, organic solvent or mixture",3.8 to 4.7 mg/mL
same,solubility,"[7]; n-amyl alcohol, organic solvent or mixture",6.8 to 8.5 mg/mL
same,solubility,"[7]; n-butyl alcohol, organic solvent or mixture",60 to 120 mg/mL
same,solubility,"[7]; organic solvent or mixture, 1- Octanol",< 0.9 mg/mL
same,solubility,"[7]; sec-butyl alcohol, organic solvent or mixture",< 1 mg/mL
same,solubility,"[7]; water, H2O",21 to 42 mg/mL

# — US11046701B2, “Salt of cetagliptin, preparation method thereof, pharmaceutical composition, and use thereof” (CGENETECH (SUZHOU, CHINA) CO., LTD., priority 2018, dated 2021)
